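Compound exposure: 48 hours, 5 concentrations, 96-well plates. Definition used: TGI = concentration required for complete inhibition of growth.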
Legend:
Assay in all cases: NCI anticancer screen, dose series, 48 h
[1] = test system: SR leukemia
[2] = test system: KM12 colon
[3] = test system: CAKI-1 renal
[4] = test system: RXF 393 renal
[5] = test system: TK-10 renal
[6] = test system: 786-0 renal
[7] = test system: NCI-H460 lung
[8] = test system: SW-620 colon
[9] = test system: SF-295 CNS
[10] = test system: M14 melanoma
[11] = test system: LXFL 529 NSCLC
[12] = test system: XF 498 CNS
[13] = test system: CCRF-CEM leukemia
[14] = test system: EKVX NSCLC
[15] = test system: HCT-15 colon
[16] = test system: UO-31 renal
[17] = test system: RPMI-8226 leukemia
[18] = test system: HOP-62 NSCLC
[19] = test system: SNB-75 CNS
[20] = test system: NCI-H522 lung
[21] = test system: DMS 114 small cell lung
[22] = test system: HT29 colon
[23] = test system: UACC-62 melanoma
[24] = test system: IGROV1 ovarian
[25] = test system: KM20L2 colon
[26] = test system: SK-MEL-28 melanoma
[27] = test system: U251 CNS
[28] = test system: OVCAR-4 ovarian
[29] = test system: COLO 205 colon
[30] = test system: HCC-2998 colon
[31] = test system: MALME-3M melanoma
[32] = test system: OVCAR-8 ovarian
[33] = test system: ACHN renal
[34] = test system: HCT-116 colon
[35] = test system: SK-MEL-2 melanoma
[36] = test system: DMS 273 small cell lung
[37] = test system: OVCAR-3 ovarian
[38] = test system: UACC-257 melanoma
[39] = test system: SF-539 CNS
[40] = test system: NCI-H23 lung
[41] = test system: SF-268 CNS
[42] = test system: NCI-H226 lung
[43] = test system: MOLT-4 leukemia
[44] = test system: HL-60(TB) leukemia
[45] = test system: SN12C renal
[46] = test system: HOP-18 NSCLC
[47] = test system: K-562 leukemia
[48] = test system: DLD-1 colon
[49] = test system: M19-MEL melanoma
[50] = test system: HOP-92 NSCLC
[51] = test system: A549 NSCLC
[52] = test system: SNB-19 CNS
[53] = test system: RXF-631 renal
[54] = test system: LOX IMVI melanoma
[55] = test system: SK-OV-3 ovarian
[56] = test system: A498 renal
[57] = test system: SNB-78 CNS
[58] = test system: SK-MEL-5 melanoma
[59] = test system: OVCAR-5 ovarian

With `CC(=O)NC(CCCNC(=O)N(CCCl)N=O)C(=O)NCc1ccccc1` (stereo not given) the TGI [1] was greater than 100 µM, the TGI [2] was greater than 100 µM and the TGI [3] was greater than 100 µM. For the same compound, the TGI [4] was greater than 100 µM, the TGI [5] was greater than 100 µM and the TGI [6] was greater than 100 µM. It also gave a TGI [7] greater than 100 µM, a TGI [8] greater than 100 µM and a TGI [9] greater than 100 µM. It also gave a TGI [10] greater than 100 µM, a TGI [11] greater than 100 µM and a TGI [12] greater than 100 µM. It also gave a TGI [13] greater than 100 µM, a TGI [14] greater than 100 µM and a TGI [15] greater than 100 µM. The TGI [16] was greater than 100 µM, the TGI [17] was greater than 100 µM and the TGI [18] was greater than 100 µM. It also gave a TGI [19] greater than 100 µM, a TGI [20] greater than 100 µM and a TGI [21] greater than 100 µM. The TGI [22] was greater than 100 µM, the TGI [23] was greater than 100 µM and the TGI [24] was greater than 100 µM. The TGI [25] was greater than 100 µM, the TGI [26] was greater than 100 µM and the TGI [27] was greater than 100 µM. For the same compound, the TGI [28] was greater than 100 µM, the TGI [29] was greater than 100 µM and the TGI [30] was greater than 100 µM. It also gave a TGI [31] greater than 100 µM, a TGI [32] greater than 100 µM and a TGI [33] greater than 100 µM. For the same compound, the TGI [34] was greater than 100 µM, the TGI [35] was greater than 100 µM and the TGI [36] was greater than 100 µM. For the same compound, the TGI [37] was greater than 100 µM, the TGI [38] was greater than 100 µM and the TGI [39] was 69.6 µM. It also gave a TGI [40] greater than 100 µM, a TGI [41] greater than 100 µM and a TGI [42] greater than 100 µM. The TGI [43] was greater than 100 µM, the TGI [44] was greater than 100 µM and the TGI [45] was greater than 100 µM. For the same compound, the TGI [46] was greater than 100 µM, the TGI [47] was greater than 100 µM and the TGI [48] was greater than 100 µM. It also gave a TGI [49] greater than 100 µM, a TGI [50] greater than 100 µM and a TGI [51] greater than 100 µM. The TGI [52] was greater than 100 µM.

With `C[N+](C)(C)CCc1ccccc1` the TGI [1] was greater than 100 µM, the TGI [2] was greater than 100 µM and the TGI [3] was greater than 100 µM. The TGI [4] was greater than 100 µM, the TGI [5] was greater than 100 µM and the TGI [6] was greater than 100 µM. For the same compound, the TGI [7] was greater than 100 µM, the TGI [8] was greater than 100 µM and the TGI [9] was greater than 100 µM. The TGI [10] was greater than 100 µM, the TGI [11] was greater than 100 µM and the TGI [12] was greater than 100 µM. For the same compound, the TGI [13] was greater than 100 µM, the TGI [14] was greater than 100 µM and the TGI [15] was greater than 100 µM. It also gave a TGI [16] greater than 100 µM, a TGI [17] greater than 100 µM and a TGI [18] greater than 100 µM. For the same compound, the TGI [19] was greater than 100 µM, the TGI [53] was greater than 100 µM and the TGI [20] was greater than 100 µM. It also gave a TGI [21] greater than 100 µM, a TGI [22] greater than 100 µM and a TGI [23] greater than 100 µM. For the same compound, the TGI [24] was greater than 100 µM, the TGI [54] was greater than 100 µM and the TGI [25] was greater than 100 µM. The TGI [26] was greater than 100 µM, the TGI [27] was greater than 100 µM and the TGI [28] was greater than 100 µM. For the same compound, the TGI [29] was greater than 100 µM, the TGI [30] was greater than 100 µM and the TGI [31] was greater than 100 µM. For the same compound, the TGI [32] was greater than 100 µM, the TGI [33] was greater than 100 µM and the TGI [34] was greater than 100 µM. For the same compound, the TGI [55] was greater than 100 µM, the TGI [35] was greater than 100 µM and the TGI [56] was greater than 100 µM. The TGI [57] was greater than 100 µM, the TGI [36] was greater than 100 µM and the TGI [58] was greater than 100 µM. The TGI [37] was greater than 100 µM, the TGI [59] was greater than 100 µM and the TGI [38] was greater than 100 µM. The TGI [39] was greater than 100 µM, the TGI [40] was greater than 100 µM and the TGI [41] was greater than 100 µM. The TGI [42] was greater than 100 µM, the TGI [43] was greater than 100 µM and the TGI [44] was greater than 100 µM. For the same compound, the TGI [45] was greater than 100 µM, the TGI [47] was greater than 100 µM and the TGI [48] was greater than 100 µM. It also gave a TGI [49] greater than 100 µM, a TGI [50] greater than 100 µM and a TGI [51] greater than 100 µM. The TGI [52] was greater than 100 µM.
